Experimental data from paper PMC10145898, “Drug Repurposing of FDA Compounds against α-Glucosidase for the Treatment of Type 2 Diabetes: Insights from Molecular Docking and Molecular Dynamics Simulations” (Pharmaceuticals, 2023).

Biological target: α-glucosidase
Test: pNPG hydrolysis absorbance assay at […] nm, pH […] °C
Format: biochemical

COc1cc2c(cc1O)CCN[C@]21CS[C@@H]2c3c(OC(C)=O)c(C)c4c(c3[C@H](COC1=O)N1[C@@H]2[C@H]2c3c(cc(C)c(OC)c3O)C[C@@H]([C@@H]1O)N2C)OCO4 [Trabectedin]
IC50: 1.26 ± 0.7 µM
